{"source": "patent US10450327B2", "about": "“Epidithiodioxopiperazine compound or its derivatives, and the use thereof” (priority 2011, dated 2019)", "key": {"[1]": {"tested_on": "yeast thioredoxin (Trx) / yeast thioredoxin reductase (TR) system", "assay": "Peroxidase activity assay (hydrogen peroxide reduction), Trx/TR system", "assay_type": "biochemical", "conditions": "25 μM ETP compound, 30° C., NADPH oxidation at 340 nm", "procedure": "The peroxidase activity assay for the epidithiodioxopiperazine derivatives according to the present invention (hereinafter, referred to as ETP compounds) was performed according to known methods [Korean Patent No. 10-0953326]. A standard peroxidase reaction for spectrophotometric assay was carried out using a 200 μl reaction mixture of 1 mM EDTA-containing 50 mM Hepes-NaOH buffer solution (pH 7.0) including 250 μM NADPH, 3 μM yeast thioredoxin (Trx), 1.5 μM yeast thioredoxin reductase (TR), 25 μM ETP compound and […] of hydrogen peroxide. For the comparison with a glutathione (GSH)-dependent peroxidase reaction, GSH (1 mM) and yeast glutathione reductase (GSH reductase; GR) (1 Unit) were added instead of yeast Trx and TR. Each reaction was initiated by adding hydrogen peroxide, and the NADPH oxidation was monitored for 12 minutes at 30° C. according to absorbance decrease at 340 nm using an Agilent UV8453 spectrophotometer (Hewlett Packard, USA). The initial reaction rate was calculated using the linear portion of the curve and expressed as the amount of NADPH oxidized per minute.\nThe chemical feature of the epidithiodioxopiperazine compound of the present invention or its derivatives is the intramolecular disulfide bridge present in the epidithiodioxopiperazine ring moiety. Cellular peroxidase reduces hydrogen peroxide utilizing the electrons derived from NADPH via two electron-transfer routes, that is, Trx/TR or GSH/GR, therefore, spectrophotometric assay was performed for the hydrogen peroxide-reducing activity in the presence of each system, and the results are shown in FIGS. 1 to 5."}, "NADPH oxidase (NOX)": {"tested_on": "NADPH oxidase (NOX)", "assay": "NADPH oxidase activity assay (whole cell superoxide production)", "assay_type": "cell-based, human", "conditions": "HASMCs with PDGF-B and HAECs with VEGF-A; until concentrations increased up to 500 nM", "procedure": "Whole cell superoxide production was measured using an enhanced luminescence system (Diogenes, National Diagnostics). For the assay, the serum-starved cells were pre-incubated with a 100 μl Diogene reagent at 37° C. for 5 minutes. After being stimulated by the indicated growth factor, chemiluminescence was detected every second for 10 minutes with a TD-20/20 Luminometer (Turner Biosystems).\nWhen HASMCs and HAECs were stimulated with PDGF-B and VEGF-A, respectively, the NOX activity increased approximately twofold. […] Thus, it was seen that these ETP compounds function as hydrogen peroxide reductase capable of replacing PrxII in both vascular cells, but the mechanism was not the inhibition of hydrogen peroxide producer NOX."}, "[2]": {"tested_on": "SK-MEL-28 (SK28) melanoma cells", "assay": "Intracellular hydrogen peroxide, SK28 melanoma cells", "assay_type": "cell-based, human", "conditions": "PrxII-deficient SK28 cells, nontoxic level of GT", "procedure": "The intracellular H2O2 level was measured using 5,6-chloromethyl-2′,7′-dichlorodihydrofluorescein diacetate (CM-DCFH-DA, Invitrogen), an oxidation-sensitive fluorescent dye. Human epidermal melanocyte, SK-MEL-5, SK-MEL-28, A375 and G361 cells (3×10^5) were grown in a 35 mm culure dish and infected with retroviruses for 24 hours. After that, the cells were serum-starved for 18 hours, and stimulated with 20% FBS for 10 minutes in a phenol red-free medium. After stimulated as described above, the cells were quickly rinsed with a Krebs-Ringer solution, and incubated with 5 μM CM-DCFH-DA for 5 minutes. 2′,7′-dichlorodihydrofluorescein (DCF) fluorescence was collected for 10 seconds using an inverted Axiovert 200 fluorescence microscope (Zeiss). The relative DCF fluorescence was calculated by averaging the fluorescence intensities of 60 to 80 cells after subtracting the background fluorescence from each image using an ImageQuant™ software (GE Healthcare). The desorbed sphenoid cells were excluded from quantification.\nThis proves the peroxidase activity of GT. Again, while GT treatment in the SK28 cells reduced Src/ERK activation and β-catenin phosphorylation, it increased the expression of E-cadherin (FIG. 53B). Furthermore, GT reduced the proliferation and the migration responding to serum stimulation in both SK5 and SK28 cells (FIGS. 53C and D)."}, "SK-MEL-28 (SK28) cells": {"tested_on": "SK-MEL-28 (SK28) cells", "assay": "Melanoma proliferation and migration assay, SK28", "assay_type": "cell-based, human", "conditions": "100 nM, 1 hour pretreatment", "procedure": "The extent of cell proliferation was measured using a WST-1 cell proliferation assay kit (Roche Diagnostics, USA) according to the protocol of the manufacturer. The number of cells was expressed as an absorbance value at 450 nm averaged from 3 wells after subtracting the turbidity at 600 nm. The chemotactic transmigration assay was performed in a 24-well Transwell culture chamber (Costar; polycarbonate membrane insert with 8-μm pore size). The bottom of the insert was coated with gelatin B (1 mg/ml) and air-dried for 1 hour. Retroviruses or transfection complexes were treated to melanoma cells (6×10^3). After 24 hours, the infected or transfected melanoma cells were serum-starved for 18 hours. A 20% FBS solution was added to bottom chambers including a basal medium containing 0.5% BSA. The upper chamber wells were each filled with a basal medium including 0.5% BSA. The Transwell chamber was incubated for 12 hours in a 37° C./5% CO2 incubator. After the incubation, the non-migrating cells at the top of the filter were removed. The cells that migrated onto the bottom of filter were fixed and stained with 0.6% hematoxylin and 0.5% eosin. The stained cells were photographed and counted. The number of migrating cells was averaged from 3 wells. […]"}}}
{"smiles": "CN1C(=O)[C@]23CC4=CC=C[C@H](O)[C@H]4N2C(=O)[C@@]1(CO)SS3", "note": "[gliotoxin]", "values": [{"measurement": "hydrogen peroxide-reducing activity in the presence of a Trx/TR system", "setting": "[1]", "value": "3.72 ± 0.53", "unit": "nmol/min"}, {"measurement": "NOX activity", "setting": "NADPH oxidase (NOX)", "value": "did not inhibit"}, {"measurement": "level of intracellular hydrogen peroxide", "setting": "[2]", "value": "reduced"}, {"measurement": "proliferation and migration responding to serum stimulation, SK28", "setting": "SK-MEL-28 (SK28) cells", "value": "reduced"}]}
